Experiments:
Human plasma kallikrein = molecular target: T1, Human plasma kallikrein (Homo sapiens, UniProt P03952); assay: Plasma kallikrein inhibitory activity in vitro (purified enzyme, fluorogenic substrate); type: biochemical
T1 construct: purchased Protogen
Experimental: Human plasma kallikrein (Protogen) was incubated at 25° C. with the fluorogenic substrate H-DPro-Phe-Arg-AFC and various concentrations of the test compound. Residual enzyme activity (initial rate of reaction) was determined by measuring the change in […] at 410 nm and the IC50 value for the test compound was determined.

[1] = molecular target: T2, plasma kallikrein activity in pre-activated plasma (Homo sapiens, UniProt P03952); assay: Inhibition of enzyme activity of pre-activated undiluted plasma (inhibitor added after DXS); type: biochemical; settings: compound 300, 1000, 3000 nM; C1-INH 3000 nM; added 3.5 minutes post DXS (FIG. 3B)
T2 construct: from tissue
T2 sequence (P03952 391-638 limits assumed): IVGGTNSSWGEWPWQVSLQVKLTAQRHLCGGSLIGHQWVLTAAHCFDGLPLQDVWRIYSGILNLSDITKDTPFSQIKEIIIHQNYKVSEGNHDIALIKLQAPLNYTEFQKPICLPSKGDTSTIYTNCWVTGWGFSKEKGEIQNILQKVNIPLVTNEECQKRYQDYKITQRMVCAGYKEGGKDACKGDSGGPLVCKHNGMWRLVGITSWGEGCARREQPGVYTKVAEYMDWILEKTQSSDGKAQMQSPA
T2 sequence (P03952 20-390 partner limits assumed): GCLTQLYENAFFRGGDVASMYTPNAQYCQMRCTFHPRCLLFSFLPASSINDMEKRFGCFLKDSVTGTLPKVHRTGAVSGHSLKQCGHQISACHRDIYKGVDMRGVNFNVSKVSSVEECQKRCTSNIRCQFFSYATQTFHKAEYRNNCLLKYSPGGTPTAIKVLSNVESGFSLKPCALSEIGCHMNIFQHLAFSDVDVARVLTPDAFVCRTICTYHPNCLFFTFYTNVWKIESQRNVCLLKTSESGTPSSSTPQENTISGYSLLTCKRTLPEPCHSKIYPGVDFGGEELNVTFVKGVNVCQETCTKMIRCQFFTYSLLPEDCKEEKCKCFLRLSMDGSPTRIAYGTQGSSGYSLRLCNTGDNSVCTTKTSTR
Experimental: The ability of the compound to inhibit the enzyme activity of pre-activated plasma was assessed by addition of the compound after DXS stimulation. Aliquots of plasma (20 μL) were mixed with a 2.5 μL solution containing […] fluorogenic substrate (H-DPro-Phe-Arg-AFC) and a 2.5 μL solution of dextran sulphate (DXS; 100 μg/mL) which acted as an activator of the plasma kallikrein-kinin pathway. Enzyme activity was immediately measured by monitoring the accumulation of fluorescence liberated from the substrate by substrate cleavage over 16 minutes. At 3.5 minutes post DXS addition 5 μl of inhibitors or water control are were added into each well. The compound was tested at concentrations of 300, 1000 and 3000 nM. C1-INH at a concentration of 3000 nM and vehicle controls were also included.

[2] = molecular target: PKa in DXS-activated plasma (Homo sapiens, UniProt P03952); assay: Catalytic activity of PKa in dextran sulfate-activated plasma (inhibitor added in vitro); type: biochemical; settings: read-out: IC50 plasma enzyme
Sequence of PKa in DXS-activated plasma (P03952 391-638 limits assumed): as the sequence (P03952 391-638 limits assumed) above
Sequence of PKa in DXS-activated plasma (P03952 20-390 partner limits assumed): as the sequence (P03952 20-390 partner limits assumed) above
Experimental: Catalytic activity of PKa in dextran sulfate-activated (DXS, Sigma; 10 μg/ml) plasma (1:4 diluted or undiluted, VisuCon-F control plasma, Affinity Biologicals Inc) was determined by the time-dependent hydrolysis of fluorogenic substrate.

purified PKa = purified PKa (Homo sapiens, UniProt P03952); assay: Rate of formation of the enzyme-inhibitor complex (Kon) with purified PKa; type: biochemical
Sequence of purified PKa (P03952 391-638 limits assumed): as the sequence (P03952 391-638 limits assumed) above
Sequence of purified PKa (P03952 20-390 partner limits assumed): as the sequence (P03952 20-390 partner limits assumed) above
Experimental: The rate of formation of the enzyme-inhibitor complex (Kon) was determined using purified PKa rapidly mixed with a solution containing fluorogenic substrate and a concentration range of inhibitor. The time-dependent establishment of inhibition was then used to calculate the rate of formation of the enzyme-inhibitor complex for each concentration of inhibitor. The Kon was calculated by plotting the rate of inhibition versus the inhibitor concentration. Data in Table 1 are presented in μM^−1 sec^−1.

[3] = test system: angioedema attacks in adult subjects with hereditary angioedema type I or II; assay: Phase 2 study Part 2: on-demand treatment of HAE attacks, efficacy; type: in vivo, human; settings: 600 mg
Experimental: This was a phase 2, two-part, two-sequence, two-period (2×2) cross-over clinical trial. Subjects with HAE type I or II were recruited through HAE treatment centres in Europe and US.
(§1) In Part 2, the subjects were randomized 1:1 to 2 treatment sequences. This part of the study was conducted away from the clinic or hospital. In Sequence 1 (study arm 1) subjects received a single dose of 600 mg of the compound to treat the first eligible HAE attack. Following resolution of this attack, subjects received a single dose of placebo to treat the second eligible HAE attack.
In Sequence 2 (study arm 2) subjects received a single dose of placebo to treat the first eligible HAE attack. Following resolution of this attack, subjects received a single dose of 600 mg of the compound to treat the second eligible HAE attack.
Laryngeal or facial attacks were not eligible for treatment. HAE attacks must have been treated within the first hour of onset and before reaching severe on the global attack severity scale. Subjects must also have been able to identify the start of a HAE attack. Upon onset of the eligible HAE attack, subjects notified the dedicated study physician or qualified designee with a description of the HAE attack. The dedicated study physician or qualified designee confirmed eligibility of the HAE attack and agreed to study drug being administered. HAE attacks required documentation, on the Subject Diary, of attack location, attack symptoms, time of onset, attack severity, and time of last substantial meal prior to dosing. Subjects took study drug, as instructed, and completed timed assessments of their HAE attack symptoms for a 48 h period as documented below in Table 3. The dedicated study physician or qualified designee contacted the subject within 24 h of the eligible HAE attack to confirm the subject's safety and wellbeing. Subjects were instructed to contact the dedicated study physician or qualified designee in case of any safety concerns. In the case of hypersensitivity, subjects contacted the dedicated study physician or qualified designee or contact the nearest emergency service. The dedicated study physician or qualified designee was available 24 h/day and 7 days/week to receive subject calls.
Time to use of conventional attack treatment was assessed. The subject diary captured the efficacy endpoints including time to use of conventional attack treatment and HAE attack severity.
Overall HAE attack severity was assessed on a 5-point Likert scale (5LS) scored as none, mild, moderate, severe and very severe.
Change in HAE attack severity was assessed using a 7-point transition question (7TQ), scored as Much better/Better/A little better/No change/A little worse/Worse/Much worse.
The type of HAE attack symptoms (abdominal pain, skin pain and skin swelling) was each assessed on a 100 mm visual analogue scale (VAS) anchored at 0 (none) and 100 (very severe).
The primary endpoint, time to use of conventional attack treatment, was analyzed using a generalization of Gehan's test proposed by Feingold and Gillespie (1996) (Crossover trials with censored data. Statistics in Medicine 1996; 15(10): 953-967) to reflect the repeat measures on each subject. Subjects were treated as censored if no worsening occurs within 12 h of study drug.
The proportion of HAE attacks that worsen by one level or more on the 5LS or that require conventional attack treatment within 12 h of study drug was analyzed using Prescott's test (1981) (The comparison of success rates in cross-over trials in the presence of an order effect. Applied Statistics 1981; 30: 9-15) to compare the treatment arms.
A similar approach to that used for the primary endpoint was followed for the analysis of the time between study drug and HAE attack worsening by one level or more on the 5LS or use of conventional attack treatment, whichever comes first within 12 h. […]

[4] = Phase 2 study: safety (adverse events); type: in vivo, human
Experimental: In Part 1, subjects received a single oral dose of 600 mg of the compound to investigate the safety, PK and PD of the compound during the intercritical period between HAE attacks.
as §1
Safety Variables: • AEs, including serious adverse events (SAEs). • Laboratory test results (clinical chemistry, hematology, coagulation, and urinalysis). • Vital signs (SBP, DBP, PR, RR, body temperature). • Physical examination findings. • ECG results. • Pregnancy test (female subjects of child-bearing potential).
AEs were coded using the Medical Dictionary for Regulatory Activities (MedDRA) dictionary (v21.0 or higher) and classified by preferred term and system organ class (SOC). Listings of treatment-emergent adverse events (TEAEs), serious TEAEs, and TEAEs causing premature discontinuation will be provided by sequence group, and further classified by TEAE severity and relationship to study drug.

[5] = Phase 1 single ascending dose study: plasma concentrations (PK); type: in vivo, human; settings: oral capsule, fasted, 5 mg to 600 mg
Experimental: (§2) This study was a randomized, double-blind, placebo-controlled single ascending dose (SAD) and crossover studies for food effect and capsule/tablet formulations.
Samples for pharmacokinetic (PK) and PD assessment were taken at repeated intervals over 48 hours.
Plasma samples used for PK assessment were analysed using a validated liquid chromatography tandem mass spectrometry (LC MS/MS) method.

[6] = Phase 1 single ascending dose study: safety and tolerability; type: in vivo, human; settings: phase I trial, healthy males
Excerpt: as §2

[7] = Phase 1 multiple dose study in healthy adult subjects: safety, ECG; type: in vivo, human; settings: 3 x 600 mg every 8, 4 or 2 hours, total 1800 mg
Experimental: This is a phase 1, double-blind, placebo-controlled, multiple-dose, multiple-cohort study to evaluate safety and tolerability of the compound as well as of the ECG effects of the compound formulated as 100 mg Film Coated Tablets in healthy adult male and female subjects.
During the study, oral doses of 600 mg of the compound as Film Coated Tablets (six 100 mg tablets) or 6 matching placebo tablets will be administered once every 8 hours (Cohort 1) every 4 hours (Cohort 2), or every 2 hours (Cohort 3 and 4) to healthy adult male and female subjects up to a total dose of 1800 mg. In Cohorts 1, 2 and 3, 6 subjects will receive the compound as 100 mg Film Coated Tablets and 2 subjects will receive the placebo for a total of 8 subjects per cohort. In Cohort 4, 12 subjects will receive the compound as 100 mg Film Coated Tablets and 6 subjects will receive the placebo for a total of 18 subjects.
A Holter monitor will be attached to each subject in order to continuously record ECGs. The monitor will be attached 1 hour before the first dose and will remain attached until after the final blood sample collection. The electrodes for the Holter monitor will be checked by a member of the clinic staff at appropriate intervals to ensure they are attached.

[8] = human, in vivo; cited from earlier work
[9] = higher doses; cited from earlier work

T1 sequence (P03952 391-638 limits assumed): as the sequence (P03952 391-638 limits assumed) above
T1 sequence (P03952 20-390 partner limits assumed): as the sequence (P03952 20-390 partner limits assumed) above

For “C1-INH: C1 inhibitor (C1-INH, Sigma Cat #E0518), used as a therapeutic benchmark for HAE [Compound C1-INH]”, the IC50 (Human plasma kallikrein) was 50 nM, the “inhibition of enzyme activity on addition after activation of plasma” value [1] was “slower action” and the IC50 [2] was 1700 nM. The Kon (purified PKa) was 40000 M⁻¹ s⁻¹.
In the case of `COCc1nn(Cc2ccc(Cn3ccccc3=O)cc2)cc1C(=O)NCc1nccc(OC)c1F` [compound of Formula A, N-[(3-fluoro-4-methoxypyridin-2-yl)methyl]-3-(methoxymethyl)-1-({4-[(2-oxopyridin-1-yl)methyl]phenyl}methyl)pyrazole-4-carboxamide], the “median time for attacks to be rated better or higher (7TQ)” value [3] is reported as 5 h, the “median time to onset of symptom relief on PGI-C (7TQ)” value [3] is reported as 1.6 h and the “median time to symptom relief, composite VAS score” value [3] is reported as 6 h. The “attacks rescued (use of rescue medication)” value ([3]; at 12 hours) was 15.1%, the “use of rescue medication” value ([3]; at 24 hours) was 20.8% and the “attacks improved to none on PGI-S (5LS)” value ([3]; within 12 hours) was 56.6%. For the same molecule, the “attacks rated a little better or higher (7TQ)” value ([3]; within 12 hours) was 83.0%, the “attacks rated better or higher (7TQ)” value ([3]; within 12 hours) was 58.7% and the “attacks that do not worsen” value ([3]; within 12 hours) was 79.2%. For the same molecule, the “attacks improved to none on PGI-S (5LS)” value ([3]; within 24 hours) was 66.0%, the “attacks rated a little better or higher (7TQ)” value ([3]; within 24 hours) was 84.9% and the “attacks rated better or higher (7TQ)” value ([3]; within 24 hours) was 67.9%. The “attacks that do not worsen (5LS)” value ([3]; within 24 hours) was 69.8%, the “on-treatment drug-related TEAEs, number of events” value ([4]; Part 1, open-label, 600 mg) was 8 and the “patients with on-treatment drug-related TEAEs” value ([4]; Part 1, open-label, 600 mg) was 5 patients. The “on-treatment drug-related TEAEs, number of events” value ([4]; Part 2, crossover, 600 mg) was 3, the serious adverse events ([4]; phase 2 trial) was “no serious adverse events” and the “withdrawals due to adverse events” value ([4]; phase 2 trial) was “no patients withdrew due to adverse events”. For the same molecule, the plasma exposure [5] was “rapid and dose-dependent plasma exposure”, the serious adverse events [6] was “No serious adverse events” and the tolerability signals [6] was “no tolerability signals”. For the same molecule, the “discontinuations because of an AE” value [7] was “no subjects were discontinued because of an AE”, the “effects on the studied ECG parameters” value [7] was “No clinically relevant effects” and the serious adverse events [7] was “No serious adverse events”. The “severity of all reported adverse events” value [7] was “mild”.
For Ecallantide, the anaphylactic reactions [8] is listed as “risks of anaphylactic reactions have been reported”.
In the case of `N#Cc1cccc([C@@H](NCC2CC2)c2ccc(F)c(NC(=O)c3cc(C(F)(F)F)nn3-c3cccc(CN)c3)c2)c1` [berotralstat], the gastrointestinal adverse effects [9] is given as “more gastrointestinal adverse effects”.

— US20230381162A1, “TREATMENTS OF ANGIOEDEMA” (KALVISTA PHARMACEUTICALS LIMITED, priority 2020, published 2023)
